Results taken from PubChem BioAssay AID330 (DTP/NCI, 2004).
Toxic doses and inconclusive results are not listed. The calls were made as follows: active = survival T/C of 150% or more; inactive = T/C below 125% in these data.

Tested on: P388 leukemia ip, CD2F1 mice, survival T/C
Experiment: NCI In Vivo Anticancer Drug Screen. Data for tumor model P388 Leukemia (intraperitoneal) in CD2F1 (CDF1) mice
Details: endpoint: median survival time, higher = longer survival
In short: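 Mice carrying the transplanted tumor received test compound or vehicle. Survival was recorded in each group, and the value is the treated-group measurement divided by that of the vehicle-treated control group.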

[1] = dose: 50.0 mg/kg/injection, schedule: Q01DX009 (ip), vehicle: saline
[2] = dose: 100.0 mg/kg/injection, schedule: Q01DX009 (ip), vehicle: saline
[3] = dose: 50.0 mg/kg/injection, schedule: Q01DX005 (ip), vehicle: saline with Tween-80
[4] = dose: 100.0 mg/kg/injection, schedule: Q01DX005 (ip), vehicle: saline with Tween-80
[5] = dose: 200.0 mg/kg/injection, schedule: Q01DX005 (ip), vehicle: saline with Tween-80
[6] = dose: 50.0 mg/kg/injection, schedule: Q01DX005 (ip), vehicle: Klucel (hydroxypropylcellulose) (HPC)
[7] = dose: 100.0 mg/kg/injection, schedule: Q01DX005 (ip), vehicle: Klucel (hydroxypropylcellulose) (HPC)
[8] = dose: 200.0 mg/kg/injection, schedule: Q01DX005 (ip), vehicle: Klucel (hydroxypropylcellulose) (HPC)
[9] = dose: 60.0 mg/kg/injection, schedule: Q01DX005 (ip), vehicle: Klucel (hydroxypropylcellulose) (HPC)
[10] = dose: 120.0 mg/kg/injection, schedule: Q01DX005 (ip), vehicle: Klucel (hydroxypropylcellulose) (HPC)
[11] = dose: 240.0 mg/kg/injection, schedule: Q01DX005 (ip), vehicle: Klucel (hydroxypropylcellulose) (HPC)

Measured: T/C

CC1CC(N)=NC1C(=O)NCCC#N (configuration not stated)
inactive: dose: 12.5 mg/kg/injection, schedule: Q01DX009 (ip), vehicle: saline 97 % of control | dose: 25.0 mg/kg/injection, schedule: Q01DX009 (ip), vehicle: saline 101 % of control | [1] 98 % of control | [2] 90 % of control

Cc1nnc2n1N=C1CC(C)(C)CC(=O)C1S2 (configuration not stated)
inactive: dose: 50.0 mg/kg/injection, schedule: Q01DX009 (ip), vehicle: saline with Tween-80 101 % of control | dose: 100.0 mg/kg/injection, schedule: Q01DX009 (ip), vehicle: saline with Tween-80 102 % of control | dose: 200.0 mg/kg/injection, schedule: Q01DX009 (ip), vehicle: saline with Tween-80 94 % of control

CCOc1cccc(/C=N/NC(=O)C(=O)Nc2ccc(Cl)c([N+](=O)[O-])c2)c1O
inactive: [3] 100 % of control | [4] 89 % of control | [5] 90 % of control

Cc1nc(C(=O)O)c(C)c(=O)[nH]1
inactive: dose: 0.78 mg/kg/injection, schedule: Q01DX009 (ip), vehicle: water 96 % of control | dose: 0.78 mg/kg/injection, schedule: Q04DX003 (ip), vehicle: water 91 % of control | dose: 1.56 mg/kg/injection, schedule: Q01DX009 (ip), vehicle: water 96 % of control | dose: 1.56 mg/kg/injection, schedule: Q04DX003 (ip), vehicle: water 91 % of control | dose: 3.13 mg/kg/injection, schedule: Q01DX009 (ip), vehicle: water 112 % of control | dose: 3.13 mg/kg/injection, schedule: Q04DX003 (ip), vehicle: water 98 % of control | dose: 6.25 mg/kg/injection, schedule: Q01DX009 (ip), vehicle: water 119 % of control | dose: 6.25 mg/kg/injection, schedule: Q04DX003 (ip), vehicle: water 100 % of control | dose: 12.5 mg/kg/injection, schedule: Q01DX009 (ip), vehicle: water 114 % of control | dose: 12.5 mg/kg/injection, schedule: Q04DX003 (ip), vehicle: water 101 % of control

N#CNC(=O)c1ccc(C(=O)NC#N)cc1
inactive: [3] 98 % of control | [4] 98 % of control | [5] 90 % of control

CCOC(=O)Cc1cc2cc(=O)[nH]cc2cc1C
inactive: dose: 12.5 mg/kg/injection, schedule: Q01DX009 (ip), vehicle: distilled water + Tween-80 94 % of control | dose: 25.0 mg/kg/injection, schedule: Q01DX009 (ip), vehicle: distilled water + Tween-80 93 % of control | dose: 50.0 mg/kg/injection, schedule: Q01DX009 (ip), vehicle: distilled water + Tween-80 90 % of control | dose: 200.0 mg/kg/injection, schedule: Q01DX009 (ip), vehicle: distilled water + Tween-80 87 % of control

O=C(O)CC12CCC(CC1)OC2=O
inactive: [1] 100 % of control | [2] 106 % of control | dose: 200.0 mg/kg/injection, schedule: Q01DX009 (ip), vehicle: saline 97 % of control

N#CCCN1CCC(N)=NC1=NC#N
inactive: dose: 25.0 mg/kg/injection, schedule: Q01DX005 (ip), vehicle: Klucel (hydroxypropylcellulose) (HPC) 100 % of control | [6] 112 % of control | [7] 94 % of control | [8] 96 % of control

CCOC(=O)c1cc2c(cc1O)C1CC=C(C)[C@@H]3CCO[C@](OC)(C2)[C@]13C(=O)OC (some centres not stated)
inactive: dose: 6.25 mg/kg/injection, schedule: Q01DX001 (ip), vehicle: saline with Tween-80 106 % of control | dose: 12.5 mg/kg/injection, schedule: Q01DX001 (ip), vehicle: saline with Tween-80 101 % of control | dose: 25.0 mg/kg/injection, schedule: Q01DX001 (ip), vehicle: saline with Tween-80 111 % of control | dose: 50.0 mg/kg/injection, schedule: Q01DX001 (ip), vehicle: saline with Tween-80 100 % of control

Cc1cc2c(=O)cc(-c3ccccc3)oc2c(C#N)c1C
inactive: [9] 99 % of control | [10] 94 % of control | [11] 93 % of control

O=c1c2ccccc2nnn1O
inactive: dose: 100.0 mg/kg/injection, schedule: Q04DX003 (ip), vehicle: Klucel (hydroxypropylcellulose) (HPC) 108 % of control | dose: 200.0 mg/kg/injection, schedule: Q04DX003 (ip), vehicle: Klucel (hydroxypropylcellulose) (HPC) 108 % of control

C/C=C\c1ccc(OC(=O)NC)c(OC)c1
inactive: dose: 60.0 mg/kg/injection, schedule: Q01DX005 (ip), vehicle: saline with Tween-80 100 % of control | dose: 120.0 mg/kg/injection, schedule: Q01DX005 (ip), vehicle: saline with Tween-80 104 % of control | dose: 240.0 mg/kg/injection, schedule: Q01DX005 (ip), vehicle: saline with Tween-80 100 % of control

COc1ccc(CC2c3cc(OC)c(OC)c(OC)c3CC[N+]2(C)C)cc1Oc1ccc(CC2c3cc4c(c(OC)c3CC[N+]2(C)C)OCO4)cc1 (configuration not stated)
inactive: dose: 1.56 mg/kg/injection, schedule: Q04DX003 (ip), vehicle: saline 99 % of control | dose: 3.13 mg/kg/injection, schedule: Q04DX003 (ip), vehicle: saline 101 % of control

COc1cccc(C2CC(C)(O)Oc3cc4c(cc32)OCO4)c1O (configuration not stated)
inactive: [9] 100 % of control | [10] 100 % of control | [11] 92 % of control

CN1CC(O)C2=CC(=O)C(=O)C(I)=C21 (configuration not stated)
inactive: dose: 30.0 mg/kg/injection, schedule: Q01DX005 (ip), vehicle: saline + Tween-80 + alcohol 108 % of control | [6] 109 % of control | dose: 60.0 mg/kg/injection, schedule: Q01DX005 (ip), vehicle: saline + Tween-80 + alcohol 101 % of control | dose: 240.0 mg/kg/injection, schedule: Q01DX005 (ip), vehicle: saline + Tween-80 + alcohol 114 % of control

CC(SSc1ccc(C(C)(C)C)cc1)c1ccccc1 (configuration not stated)
inactive: [6] 96 % of control | [7] 104 % of control | [8] 109 % of control

COc1ccc(S(=O)(=O)N/N=C\c2cc([N+](=O)[O-])ccc2O)c(OC)c1OC
inactive: [3] 107 % of control | [4] 101 % of control | [5] 94 % of control

CCOC(=O)C(Cc1ccc(Oc2nc3ccccc3o2)cc1)NC(C)=O (configuration not stated)
inactive: dose: 25.0 mg/kg/injection, schedule: Q01DX001 (ip), vehicle: Klucel (hydroxypropylcellulose) (HPC) 110 % of control | dose: 50.0 mg/kg/injection, schedule: Q01DX001 (ip), vehicle: Klucel (hydroxypropylcellulose) (HPC) 112 % of control | dose: 100.0 mg/kg/injection, schedule: Q01DX001 (ip), vehicle: Klucel (hydroxypropylcellulose) (HPC) 109 % of control

O=C(CCl)NC(Cc1ccsc1)C(=O)O (configuration not stated)
inactive: [1] 93 % of control | [2] 102 % of control

[CH3][Ga][CH3].[CH3][Ga][CH3].[CH3][Ga][CH3].[CH3][Ga][CH3].[OH3+].[OH3+].[OH3+].[OH3+]
inactive: dose: 5.0 mg/kg/injection, schedule: Q04DX003 (ip), vehicle: saline with Tween-80 90 % of control | dose: 10.0 mg/kg/injection, schedule: Q04DX003 (ip), vehicle: saline with Tween-80 90 % of control

CCOC(=O)CCC[P+](c1ccccc1)(c1ccccc1)c1ccccc1
inactive: dose: 5.33 mg/kg/injection, schedule: Q01DX009 (ip), vehicle: saline with Tween-80 109 % of control | dose: 8.0 mg/kg/injection, schedule: Q01DX009 (ip), vehicle: saline with Tween-80 118 % of control | dose: 12.0 mg/kg/injection, schedule: Q01DX009 (ip), vehicle: saline with Tween-80 109 % of control

COC1c2ccccc2C=CN1C#N (configuration not stated)
inactive: dose: 50.0 mg/kg/injection, schedule: Q01DX005 (ip), vehicle: distilled water + Tween-80 + alcohol 105 % of control | dose: 100.0 mg/kg/injection, schedule: Q01DX005 (ip), vehicle: distilled water + Tween-80 + alcohol 107 % of control

O=C1OC2(C=C1Br)CCC21C=C(Br)C(=O)O1 (configuration not stated)
inactive: dose: 25.0 mg/kg/injection, schedule: Q01DX009 (ip), vehicle: Klucel (hydroxypropylcellulose) (HPC) 98 % of control

CCOC(=Nc1ccc(OCC)cc1)SC(c1ccccc1)(c1ccccc1)c1ccccc1
inactive: [3] 104 % of control | [4] 98 % of control | [5] 91 % of control
